Results as given in patent US20250026752A1, “POSITIVE ALLOSTERIC MODULATORS OF THE MUSCARINIC ACETYLCHOLINE RECEPTOR M4” (Vanderbilt University, priority 2021, published 2025).

Target: T1, human mAChR M4 (Homo sapiens, UniProt P08173)
T1 construct: expressed in transfected cells; host or cells: CHO-K1 (ATCC), stably expressing hM4 and Gqi5
T1 sequence (P08173 1-479): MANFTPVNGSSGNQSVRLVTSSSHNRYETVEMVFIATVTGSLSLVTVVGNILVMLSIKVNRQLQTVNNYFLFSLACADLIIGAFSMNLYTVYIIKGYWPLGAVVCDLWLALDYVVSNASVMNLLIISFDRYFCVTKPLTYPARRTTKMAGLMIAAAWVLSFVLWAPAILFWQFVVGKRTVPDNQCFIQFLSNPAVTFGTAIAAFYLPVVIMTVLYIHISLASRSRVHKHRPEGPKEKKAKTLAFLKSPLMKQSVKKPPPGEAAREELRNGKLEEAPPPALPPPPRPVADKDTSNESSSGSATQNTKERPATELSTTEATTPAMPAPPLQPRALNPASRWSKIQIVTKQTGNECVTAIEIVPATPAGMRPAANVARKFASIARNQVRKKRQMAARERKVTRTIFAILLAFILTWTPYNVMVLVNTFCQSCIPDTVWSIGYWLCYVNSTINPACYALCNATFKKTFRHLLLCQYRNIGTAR
Experiment: mAChR M4 cell-based functional assay: calcium flux (Fluo-4, FDSS), positive allosteric modulator activity on the EC20 acetylcholine response, hM4-Gqi5 CHO-K1 cells
Details: for Emax at 30 µM: CHO-K1, human M4, % ACh maximum at 30 μM; for EC50: human M4, PAM activity on EC20 acetylcholine response, calcium flux, read-out: Human M4 EC50
How it was run: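 CHO-K1 cells stably expressing human M4 with chimeric Gqi5, loaded with Fluo-4 AM for 50 min at 37° C. Compounds (11-point, 1:3 dilutions) added first, then an acetylcholine EC20 at 144 s; calcium read on FDSS at 1 Hz. EC50 is the half-maximal increase above the EC20 baseline, four-parameter logistic fit.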

With `CC1(C)CN(c2cnc3c(c2)CN(c2ncnc4cc(F)c(F)cc24)CC3)CCO1` [Compound 242, 4-(6-(6,7-difluoroquinazolin-4-yl)-5,6,7,8-tetrahydro-1,6-naphthyridin-3-yl)-2,2-dimethylmorpholine] the Emax at 30 µM was 90% and the EC50 was 0.03 µM.
Compound `Fc1cc2ncnc(N3CCc4ncc(Nc5cccnc5F)cc4C3)c2cc1F` [Compound 243, 6-(6,7-difluoroquinazolin-4-yl)-N-(2-fluoropyridin-3-yl)-5,6,7,8-tetrahydro-1,6-naphthyridin-3-amine] has an Emax at 30 µM of 91% and an EC50 of 0.07 µM.
Compound `c1cnc2nc(NC3CC3)nc(N3CCc4ncc(N5CCCn6nccc65)cc4C3)c2c1` [Compound 244, N-cyclopropyl-4-(3-(6,7-dihydropyrazolo[1,5-a]pyrimidin-4(5H)-yl)-7,8-dihydro-1,6-naphthyridin-6(5H)-yl)pyrido[2,3-d]pyrimidin-2-amine] has an Emax at 30 µM of 70% and an EC50 of 0.24 µM.
With `c1cnc2nc(NC3CCOC3)nc(N3CCc4ncc(N5CCCn6nccc65)cc4C3)c2c1` (centres unmarked) [Compound 245, 4-(3-(6,7-dihydropyrazolo[1,5-a]pyrimidin-4(5H)-yl)-7,8-dihydro-1,6-naphthyridin-6(5H)-yl)-N-(tetrahydrofuran-3-yl)pyrido[2,3-d]pyrimidin-2-amine] the Emax at 30 µM was 80% and the EC50 was 0.22 µM.
`c1cnc2nc(N3CCCC3)nc(N3CCc4ncc(N5CCCn6nccc65)cc4C3)c2c1` [Compound 246, 4-(3-(6,7-dihydropyrazolo[1,5-a]pyrimidin-4(5H)-yl)-7,8-dihydro-1,6-naphthyridin-6(5H)-yl)-2-(pyrrolidin-1-yl)pyrido[2,3-d]pyrimidine] was tested, and the Emax at 30 µM was 63% and the EC50 was 0.05 µM.
With `CC(C)(O)CNc1nc(N2CCc3ncc(N4CCCn5nccc54)cc3C2)c2cccnc2n1` [Compound 247, 1-((4-(3-(6,7-dihydropyrazolo[1,5-a]pyrimidin-4(5H)-yl)-7,8-dihydro-1,6-naphthyridin-6(5H)-yl)pyrido[2,3-d]pyrimidin-2-yl)amino)-2-methylpropan-2-ol] the Emax at 30 µM was 80% and the EC50 was 0.37 µM.
In the case of `OC1(C2CC2)CN(c2nc(N3CCc4ncc(N5CCCn6nccc65)cc4C3)c3cccnc3n2)C1` [Compound 248, 3-cyclopropyl-1-(4-(3-(6,7-dihydropyrazolo[1,5-a]pyrimidin-4(5H)-yl)-7,8-dihydro-1,6-naphthyridin-6(5H)-yl)pyrido[2,3-d]pyrimidin-2-yl)azetidin-3-ol], the Emax at 30 µM is reported as 82% and the EC50 is reported as 0.3 µM.
Compound `CC1(C)CN(c2nc(N3CCc4ncc(N5CCCn6nccc65)cc4C3)c3cccnc3n2)CCO1` [Compound 249, 4-(4-(3-(6,7-dihydropyrazolo[1,5-a]pyrimidin-4(5H)-yl)-7,8-dihydro-1,6-naphthyridin-6(5H)-yl)pyrido[2,3-d]pyrimidin-2-yl)-2,2-dimethylmorpholine] has an Emax at 30 µM of 47% and an EC50 of 0.81 µM.
`c1cnc2nc(N3CCOCC3)nc(N3CCc4ncc(N5CCCn6nccc65)cc4C3)c2c1` [Compound 250, 4-(4-(3-(6,7-dihydropyrazolo[1,5-a]pyrimidin-4(5H)-yl)-7,8-dihydro-1,6-naphthyridin-6(5H)-yl)pyrido[2,3-d]pyrimidin-2-yl)morpholine] gave an Emax at 30 µM of 73% and an EC50 of 0.36 µM.
Compound `CC1CN(c2ncnc3ccc(F)cc23)Cc2cc(N3C(=O)COc4ccccc43)cnc21` (centres unmarked) [Compound 251, 4-(6-(6-fluoroquinazolin-4-yl)-8-methyl-5,6,7,8-tetrahydro-1,6-naphthyridin-3-yl)-2H-benzo[b][1,4]oxazin-3(4H)-one] has an Emax at 30 µM of 75% and an EC50 of 0.75 µM.
In the case of `CC1CN(c2ncnc3cc(F)c(F)cc23)Cc2cc(N3CCOCC3)cnc21` (centres unmarked) [Compound 252, 4-(6-(6,7-difluoroquinazolin-4-yl)-8-methyl-5,6,7,8-tetrahydro-1,6-naphthyridin-3-yl)morpholine], the Emax at 30 µM is reported as 90% and the EC50 is reported as 0.15 µM.
Work on `CC1CN(c2ncnc3ccc(Cl)cc23)Cc2cc(N3CCOCC3)cnc21` (centres unmarked) [Compound 253, 4-(6-(6-chloroquinazolin-4-yl)-8-methyl-5,6,7,8-tetrahydro-1,6-naphthyridin-3-yl)morpholine] yielded an Emax at 30 µM of 96% and an EC50 of 0.03 µM.
Work on `Cc1nc(N2CCc3ncc(-c4ccnn4C(C)C)cc3C2)c2cc(Cl)ccc2n1` [Compound 254, 6-chloro-4-(3-(1-isopropyl-1H-pyrazol-5-yl)-7,8-dihydro-1,6-naphthyridin-6(5H)-yl)-2-methylquinazoline] yielded an Emax at 30 µM of 86% and an EC50 of 0.36 µM.
For `Cc1nc(N2CCc3ncc(-c4ccnn4C4COC4)cc3C2)c2cc(Cl)ccc2n1` [Compound 255, 6-chloro-2-methyl-4-(3-(1-(oxetan-3-yl)-1H-pyrazol-5-yl)-7,8-dihydro-1,6-naphthyridin-6(5H)-yl)quinazoline], the Emax at 30 µM was 76% and the EC50 was 0.61 µM.
In the case of `Cc1nc(N2CCc3ncc(-c4c(C)cnn4C)cc3C2)c2cc(Cl)ccc2n1` [Compound 256, 6-chloro-4-(3-(1,4-dimethyl-1H-pyrazol-5-yl)-7,8-dihydro-1,6-naphthyridin-6(5H)-yl)-2-methylquinazoline], the Emax at 30 µM is reported as 94% and the EC50 is reported as 0.14 µM.
Compound `Cc1nc(N2CCc3ncc(-c4cc(C(F)(F)F)nn4C)cc3C2)c2cc(Cl)ccc2n1` [Compound 257, 6-chloro-2-methyl-4-(3-(1-methyl-3-(trifluoromethyl)-1H-pyrazol-5-yl)-7,8-dihydro-1,6-naphthyridin-6(5H)-yl)quinazoline] has an Emax at 30 µM of 87% and an EC50 of 0.83 µM.
In the case of `C[C@@H]1CN(c2ncnc3cc(F)c(F)cc23)Cc2cc(N3CCOCC3)cnc21` [Compound 258, (R)-4-(6-(6,7-difluoroquinazolin-4-yl)-8-methyl-5,6,7,8-tetrahydro-1,6-naphthyridin-3-yl)morpholine], the Emax at 30 µM is reported as 93% and the EC50 is reported as 0.18 µM.
`C[C@@H]1CN(c2ncnc3ccc(F)cc23)Cc2cc(N3CCOCC3)cnc21` [Compound 259, (R)-4-(6-(6-fluoroquinazolin-4-yl)-8-methyl-5,6,7,8-tetrahydro-1,6-naphthyridin-3-yl)morpholine] gave an Emax at 30 µM of 91% and an EC50 of 0.2 µM.
Work on `C[C@@H]1CN(c2ncnc3ccc(Cl)cc23)Cc2cc(N3CCOCC3)cnc21` [Compound 260, (R)-4-(6-(6-chloroquinazolin-4-yl)-8-methyl-5,6,7,8-tetrahydro-1,6-naphthyridin-3-yl)morpholine] yielded an Emax at 30 µM of 107% and an EC50 of 0.12 µM.
In the case of `C[C@H]1CN(c2ncnc3cc(F)c(F)cc23)Cc2cc(N3CCOCC3)cnc21` [Compound 261, (S)-4-(6-(6,7-difluoroquinazolin-4-yl)-8-methyl-5,6,7,8-tetrahydro-1,6-naphthyridin-3-yl)morpholine], the Emax at 30 µM is reported as 79% and the EC50 is reported as 0.44 µM.
For `C[C@H]1CN(c2ncnc3ccc(F)cc23)Cc2cc(N3CCOCC3)cnc21` [Compound 262, (S)-4-(6-(6-fluoroquinazolin-4-yl)-8-methyl-5,6,7,8-tetrahydro-1,6-naphthyridin-3-yl)morpholine], the Emax at 30 µM was 73% and the EC50 was 0.26 µM.
`C[C@H]1CN(c2ncnc3ccc(Cl)cc23)Cc2cc(N3CCOCC3)cnc21` [Compound 263, (S)-4-(6-(6-chloroquinazolin-4-yl)-8-methyl-5,6,7,8-tetrahydro-1,6-naphthyridin-3-yl)morpholine] gave an Emax at 30 µM of 88% and an EC50 of 0.16 µM.
In the case of `CC(C)n1nccc1-c1cnc2c(c1)CN(c1ncnc3ccc(F)cc13)CC2` [Compound 264, 6-fluoro-4-(3-(1-isopropyl-1H-pyrazol-5-yl)-7,8-dihydro-1,6-naphthyridin-6(5H)-yl)quinazoline], the Emax at 30 µM is reported as 82% and the EC50 is reported as 0.14 µM.
For `Fc1ccc2ncnc(N3CCc4ncc(-c5ccnn5C5COC5)cc4C3)c2c1` [Compound 265, 6-fluoro-4-(3-(1-(oxetan-3-yl)-1H-pyrazol-5-yl)-7,8-dihydro-1,6-naphthyridin-6(5H)-yl)quinazoline], the Emax at 30 µM was 76% and the EC50 was 0.5 µM.
Work on `Cc1cnn(C)c1-c1cnc2c(c1)CN(c1ncnc3ccc(F)cc13)CC2` [Compound 266, 4-(3-(1,4-dimethyl-1H-pyrazol-5-yl)-7,8-dihydro-1,6-naphthyridin-6(5H)-yl)-6-fluoroquinazoline] yielded an Emax at 30 µM of 90% and an EC50 of 0.06 µM.
For `Cn1nc(C(F)(F)F)cc1-c1cnc2c(c1)CN(c1ncnc3ccc(F)cc13)CC2` [Compound 267, 6-fluoro-4-(3-(1-methyl-3-(trifluoromethyl)-1H-pyrazol-5-yl)-7,8-dihydro-1,6-naphthyridin-6(5H)-yl)quinazoline], the Emax at 30 µM was 81% and the EC50 was 0.2 µM.
Compound `CC(C)n1nccc1-c1cnc2c(c1)CN(c1ncnc3cc(F)c(F)cc13)CC2` [Compound 268, 6,7-difluoro-4-(3-(1-isopropyl-1H-pyrazol-5-yl)-7,8-dihydro-1,6-naphthyridin-6(5H)-yl)quinazoline] has an Emax at 30 µM of 85% and an EC50 of 0.19 µM.
Work on `Fc1cc2ncnc(N3CCc4ncc(-c5ccnn5C5COC5)cc4C3)c2cc1F` [Compound 269, 6,7-difluoro-4-(3-(1-(oxetan-3-yl)-1H-pyrazol-5-yl)-7,8-dihydro-1,6-naphthyridin-6(5H)-yl)quinazoline] yielded an Emax at 30 µM of 79% and an EC50 of 1.6 µM.
